According to PMC5218480 (PLoS ONE, 2017):

Tested on: MV-4-11 cells
Test: Gene expression microarray analysis (Affymetrix PrimeView) and GSEA
Assay type: cell-based, human
Set-up: RFU PODN (11730768_x_at) / Fold change /veh PODN (11730768_x_at) / RFU LINC00158 (11744669_a_at) / Fold change /veh LINC00158 (11744669_a_at) / RFU DUSP10 (11751237_a_at) / Fold change /veh DUSP10 (11751237_a_at) / RFU ID3 (11757404_x_at) / Fold change /veh ID3 (11757404_x_at) / RFU PLEKHG5 (11737974_s_at) / Fold change /veh PLEKHG5 (11737974_s_at) / RFU LRRC4B (11730491_at) / Fold change /veh LRRC4B (11730491_at) / RFU GIMAP4 (11747438_a_at) / Fold change /veh GIMAP4 (11747438_a_at) / RFU KRT8 (11758183_x_at) / Fold change /veh KRT8 (11758183_x_at) / RFU CNN1 (11734310_a_at) / Fold change /veh CNN1 (11734310_a_at) / RFU VPS37D (11726825_at) / Fold change /veh VPS37D (11726825_at) / RFU C10orf10 (11716522_x_at) / Fold change /veh C10orf10 (11716522_x_at) / RFU KIR2DL2 /// KIR2DL4 /// KIR2DL5A /// KIR2DL5B /// KIR2DS1 /// KIR2DS2 /// KIR2DS3 /// KIR2DS4 /// KIR3DL3 /// KIR3DL3 /// KIR3DS1 (11738374_at) / Fold change /veh KIR2DL2 /// KIR2DL4 /// KIR2DL5A /// KIR2DL5B /// KIR2DS1 /// KIR2DS2 /// KIR2DS3 /// KIR2DS4 /// KIR3DL3 /// KIR3DL3 /// KIR3DS1 (11738374_at) / RFU C1QL1 (11718748_at) / Fold change /veh C1QL1 (11718748_at) / RFU TMPRSS4 (11747572_a_at) / Fold change /veh TMPRSS4 (11747572_a_at) / RFU HAMP (11756126_x_at) / Fold change /veh HAMP (11756126_x_at) / RFU RNFT2 (11725882_a_at) / Fold change /veh RNFT2 (11725882_a_at) / RFU NR4A2 (11747474_a_at) / Fold change /veh NR4A2 (11747474_a_at) / RFU ABCC12 (11746883_a_at) / Fold change /veh ABCC12 (11746883_a_at) / RFU TMEM136 (11760407_x_at) / Fold change /veh TMEM136 (11760407_x_at) / RFU CLDN22 /// WWC2 (11732394_at) / Fold change /veh CLDN22 /// WWC2 (11732394_at) / RFU HLA-DPB1 (11760878_x_at) / Fold change /veh HLA-DPB1 (11760878_x_at) / RFU SPINT1 (11716480_a_at) / Fold change /veh SPINT1 (11716480_a_at) / RFU GAP43 (11754022_s_at) / Fold change /veh GAP43 (11754022_s_at) / RFU A4GNT (11735810_at) / Fold change /veh A4GNT (11735810_at) / RFU PRB3 (11715151_x_at) / Fold change /veh PRB3 (11715151_x_at) / RFU TUBB4B (11761932_at) / Fold change /veh TUBB4B (11761932_at) / RFU CAPN14 (11732068_a_at) / Fold change /veh CAPN14 (11732068_a_at) / RFU TMCC2 (11721928_a_at) / Fold change /veh TMCC2 (11721928_a_at) / RFU IRGQ (11745062_a_at) / Fold change /veh IRGQ (11745062_a_at) / RFU FAM174B (11720279_a_at) / Fold change /veh FAM174B (11720279_a_at) / RFU TMPRSS4 (11748680_a_at) / Fold change /veh TMPRSS4 (11748680_a_at) / RFU FAM212B (11763350_a_at) / Fold change /veh FAM212B (11763350_a_at) / RFU PLEKHG5 (11743358_a_at) / Fold change /veh PLEKHG5 (11743358_a_at) / RFU ZSCAN30 (11745921_a_at) / Fold change /veh ZSCAN30 (11745921_a_at) / RFU CMKLR1 (11741424_a_at) / Fold change /veh CMKLR1 (11741424_a_at) / RFU LOC101060620 /// MAPK8IP1 (11723275_at) / Fold change /veh LOC101060620 /// MAPK8IP1 (11723275_at) / RFU SPTSSB (11747773_x_at) / Fold change /veh SPTSSB (11747773_x_at) / RFU PRSS12 (11739890_at) / Fold change /veh PRSS12 (11739890_at) / RFU BIN1 (11741810_x_at) / Fold change /veh BIN1 (11741810_x_at) / RFU WNT11 (11732464_a_at) / Fold change /veh WNT11 (11732464_a_at) / RFU C10orf10 (11716521_a_at) / Fold change /veh C10orf10 (11716521_a_at) / RFU C5orf56 (11738089_at) / Fold change /veh C5orf56 (11738089_at) / RFU CYB561 (11721691_x_at) / Fold change /veh CYB561 (11721691_x_at) / RFU ANKRD19P (11752326_a_at) / Fold change /veh ANKRD19P (11752326_a_at) / RFU OR2T12 /// OR2T33 /// OR2T8 (11738714_s_at) / Fold change /veh OR2T12 /// OR2T33 /// OR2T8 (11738714_s_at) / RFU VCAN (11748164_a_at) / Fold change /veh VCAN (11748164_a_at) / RFU JSRP1 (11732532_at) / Fold change /veh JSRP1 (11732532_at) / RFU KRTAP10-11 (11738290_x_at) / Fold change /veh KRTAP10-11 (11738290_x_at) / RFU MYO3A (11730013_a_at) / Fold change /veh MYO3A (11730013_a_at) / RFU EBF3 (11725865_a_at) / Fold change /veh EBF3 (11725865_a_at) / RFU CAMK2N1 (11719241_x_at) / Fold change /veh CAMK2N1 (11719241_x_at) / RFU C5orf56 (11738088_a_at) / Fold change /veh C5orf56 (11738088_a_at) / RFU OLFML3 (11715873_a_at) / Fold change /veh OLFML3 (11715873_a_at) / RFU LOC100653217 /// NTM (11731650_a_at) / Fold change /veh LOC100653217 /// NTM (11731650_a_at) / RFU MAPK11 (11762145_a_at) / Fold change /veh MAPK11 (11762145_a_at) / RFU FIZ1 (11724087_x_at) / Fold change /veh FIZ1 (11724087_x_at) / RFU OASL (11726364_x_at) / Fold change /veh OASL (11726364_x_at) / RFU SOX15 (11748057_x_at) / Fold change /veh SOX15 (11748057_x_at) / RFU CD79A (11719716_a_at) / Fold change /veh CD79A (11719716_a_at) / RFU HIST1H1D (11736915_at) / Fold change /veh HIST1H1D (11736915_at) / RFU CASKIN2 (11723855_a_at) / Fold change /veh CASKIN2 (11723855_a_at) / RFU LOC730098 (11760151_x_at) / Fold change /veh LOC730098 (11760151_x_at) / RFU OR4N2 (11742367_at) / Fold change /veh OR4N2 (11742367_at) / RFU PRRT2 (11749266_a_at) / Fold change /veh PRRT2 (11749266_a_at) / RFU SNX32 (11753110_a_at) / Fold change /veh SNX32 (11753110_a_at) / RFU CDHR5 (11726645_a_at) / Fold change /veh CDHR5 (11726645_a_at) / RFU RCAN1 (11760418_a_at) / Fold change /veh RCAN1 (11760418_a_at) / RFU FAM167A (11723789_a_at) / Fold change /veh FAM167A (11723789_a_at) / RFU FAM26E (11764081_at) / Fold change /veh FAM26E (11764081_at) / RFU ISYNA1 (11749810_s_at) / Fold change /veh ISYNA1 (11749810_s_at) / RFU ACY1 (11761880_at) / Fold change /veh ACY1 (11761880_at) / RFU 11764098_at / Fold change /veh 11764098_at / RFU SAMD14 (11745864_x_at) / Fold change /veh SAMD14 (11745864_x_at) / RFU NPB (11741838_a_at) / Fold change /veh NPB (11741838_a_at) / RFU TMPRSS6 (11731388_a_at) / Fold change /veh TMPRSS6 (11731388_a_at) / RFU KRTAP10-2 (11738614_at) / Fold change /veh KRTAP10-2 (11738614_at) / RFU ARHGAP8 /// PRR5-ARHGAP8 (11727945_x_at) / Fold change /veh ARHGAP8 /// PRR5-ARHGAP8 (11727945_x_at) / RFU KRTAP5-7 /// NADSYN1 (11734609_at) / Fold change /veh KRTAP5-7 /// NADSYN1 (11734609_at) / RFU RASL12 (11751679_a_at) / Fold change /veh RASL12 (11751679_a_at) / RFU CDKN2B (11736163_a_at) / Fold change /veh CDKN2B (11736163_a_at) / RFU PRF1 (11729649_at) / Fold change /veh PRF1 (11729649_at) / RFU, ZNF638 /// ZNF638-IT1 / Fold change vs veh, ZNF638 /// ZNF638-IT1 / RFU, PANK3 / Fold change vs veh, PANK3 / RFU, SH3YL1 / Fold change vs veh, SH3YL1 / RFU, ZEB2 / Fold change vs veh, ZEB2 / RFU, NRIP1 / Fold change vs veh, NRIP1 / RFU, PTTG1IP / Fold change vs veh, PTTG1IP / RFU, CAPN2 / Fold change vs veh, CAPN2 / RFU, MED14 / Fold change vs veh, MED14 / RFU, SNORA58 / Fold change vs veh, SNORA58 / RFU, C1orf63 / Fold change vs veh, C1orf63 / RFU, LRRFIP1 / Fold change vs veh, LRRFIP1 / RFU, NDUFAF7 / Fold change vs veh, NDUFAF7 / RFU, SLC12A2 / Fold change vs veh, SLC12A2 / RFU, IBTK / Fold change vs veh, IBTK / RFU, ESF1 / Fold change vs veh, ESF1 / Fold change vs veh, TMEM50B / RFU, TAOK1 / Fold change vs veh, TAOK1 / RFU, ACBD3 / Fold change vs veh, ACBD3 / RFU, TMA16 / Fold change vs veh, TMA16 / RFU, RWDD3 / Fold change vs veh, RWDD3 / RFU, BCAT1 / Fold change vs veh, BCAT1 / RFU, EDEM3 / Fold change vs veh, EDEM3 / RFU, TMEM33 / Fold change vs veh, TMEM33 / RFU, WDR75 / Fold change vs veh, WDR75 / RFU, AHCTF1 / Fold change vs veh, AHCTF1 / RFU, TFRC / Fold change vs veh, TFRC / RFU, ZDHHC17 / Fold change vs veh, ZDHHC17 / RFU, NOM1 / Fold change vs veh, NOM1 / RFU, ARL8B / Fold change vs veh, ARL8B / RFU, ZBTB11 / Fold change vs veh, ZBTB11 / RFU, TAMM41 / Fold change vs veh, TAMM41 / RFU, KIAA1704 /// LOC100996395 / Fold change vs veh, KIAA1704 /// LOC100996395 / RFU, ING1 / Fold change vs veh, ING1 / RFU, TRMT61B / Fold change vs veh, TRMT61B / RFU, FUBP3 / Fold change vs veh, FUBP3 / RFU, TP53 / Fold change vs veh, TP53 / RFU, TNKS2 / Fold change vs veh, TNKS2 / RFU, ZFP14 / Fold change vs veh, ZFP14 / RFU, ACTR2 / Fold change vs veh, ACTR2 / RFU, PPP3R1 / Fold change vs veh, PPP3R1 / RFU, PIK3R1 / Fold change vs veh, PIK3R1 / RFU, HNRNPA1 / Fold change vs veh, HNRNPA1 / RFU, RNF170 / Fold change vs veh, RNF170 / RFU, ZNF28 / Fold change vs veh, ZNF28 / RFU, RNGTT / Fold change vs veh, RNGTT / RFU, OGT / Fold change vs veh, OGT / RFU, BRD1 / Fold change vs veh, BRD1 / RFU, MARS / Fold change vs veh, MARS / RFU, ZNF655 / Fold change vs veh, ZNF655 / RFU, FAHD1 / Fold change vs veh, FAHD1 / RFU, BDP1 / Fold change vs veh, BDP1 / RFU, LRRCC1 / Fold change vs veh, LRRCC1 / RFU, ARID1A / Fold change vs veh, ARID1A / RFU, ZNF146 / Fold change vs veh, ZNF146 / RFU, ZNF330 / Fold change vs veh, ZNF330 / RFU, GPN3 / Fold change vs veh, GPN3 / RFU, C9orf123 / Fold change vs veh, C9orf123 / RFU, N4BP2L2 / Fold change vs veh, N4BP2L2 / RFU, ARFIP1 / Fold change vs veh, ARFIP1 / RFU, FAM179B / Fold change vs veh, FAM179B / RFU, BCL10 / Fold change vs veh, BCL10 / RFU, UHRF1BP1L / Fold change vs veh, UHRF1BP1L / RFU, BET1 / Fold change vs veh, BET1 / RFU, CNOT2 / Fold change vs veh, CNOT2 / RFU, ZNF268 / Fold change vs veh, ZNF268 / Fold change vs veh, ZNF507 / RFU, DGCR2 / Fold change vs veh, DGCR2 / RFU, WDSUB1 / Fold change vs veh, WDSUB1 / Fold change vs veh, HSP90B1 /// MIR3652 / RFU, ADSS / Fold change vs veh, ADSS / RFU, GK / Fold change vs veh, GK / RFU, ZNF148 / Fold change vs veh, ZNF148 / RFU, TAF9 / Fold change vs veh, TAF9 / RFU, SLC1A5 / Fold change vs veh, SLC1A5 / RFU, SLMO2 / Fold change vs veh, SLMO2 / RFU, ABCC4 / Fold change vs veh, ABCC4 / RFU, LOC101060439 /// RAP1B / Fold change vs veh, LOC101060439 /// RAP1B / RFU, RFX7 / Fold change vs veh, RFX7 / RFU, GTPBP10 / Fold change vs veh, GTPBP10 / RFU, CNEP1R1 / Fold change vs veh, CNEP1R1 / RFU, BIVM-ERCC5 /// ERCC5 / Fold change vs veh, BIVM-ERCC5 /// ERCC5 / RFU, ILF3 / Fold change vs veh, ILF3 / RFU 11762660_at / Fold change /veh 11762660_at / RFU VCAN (11757783_s_at) / Fold change /veh VCAN (11757783_s_at) / RFU DDX43 (11728927_at) / Fold change /veh DDX43 (11728927_at) / RFU KRT8 (11758188_x_at) / Fold change /veh KRT8 (11758188_x_at) / RFU NKD1 (11759106_at) / Fold change /veh NKD1 (11759106_at) / RFU SRD5A1 (11742802_a_at) / Fold change /veh SRD5A1 (11742802_a_at) / RFU TPSAB1 /// TPSB2 (11721975_s_at) / Fold change /veh TPSAB1 /// TPSB2 (11721975_s_at) / RFU GSTM3 (11746129_a_at) / Fold change /veh GSTM3 (11746129_a_at) / RFU IL23R (11737362_x_at) / Fold change /veh IL23R (11737362_x_at) / RFU TMEM51 (11727254_a_at) / Fold change /veh TMEM51 (11727254_a_at) / RFU PIWIL2 (11732686_x_at) / Fold change /veh PIWIL2 (11732686_x_at) / RFU ORM1 (11744905_x_at) / Fold change /veh ORM1 (11744905_x_at) / RFU CCDC152 (11743942_at) / Fold change /veh CCDC152 (11743942_at) / RFU ECM1 (11717891_a_at) / Fold change /veh ECM1 (11717891_a_at) / RFU IL23R (11748794_a_at) / Fold change /veh IL23R (11748794_a_at) / RFU TNFAIP8L3 (11732012_x_at) / Fold change /veh TNFAIP8L3 (11732012_x_at) / RFU MBOAT4 (11741988_at) / Fold change /veh MBOAT4 (11741988_at) / RFU 11764193_at / Fold change /veh 11764193_at / RFU TMEM53 (11763286_at) / Fold change /veh TMEM53 (11763286_at) / RFU MAGEB2 (11727129_at) / Fold change /veh MAGEB2 (11727129_at) / RFU TMEM200A (11744735_a_at) / Fold change /veh TMEM200A (11744735_a_at) / RFU CCDC152 (11751479_a_at) / Fold change /veh CCDC152 (11751479_a_at) / RFU FAM211A (11726209_a_at) / Fold change /veh FAM211A (11726209_a_at) / RFU RGS16 (11746705_a_at) / Fold change /veh RGS16 (11746705_a_at) / RFU VCAN (11755009_s_at) / Fold change /veh VCAN (11755009_s_at) / RFU RHOB (11743442_s_at) / Fold change /veh RHOB (11743442_s_at) / RFU RGS16 (11720943_a_at) / Fold change /veh RGS16 (11720943_a_at) / RFU RGS16 (11720944_at) / Fold change /veh RGS16 (11720944_at) / RFU, VPS4B / Fold change vs veh, VPS4B / RFU, CREB1 / Fold change vs veh, CREB1 / RFU, DNAJC13 / Fold change vs veh, DNAJC13 / RFU, GNAQ / Fold change vs veh, GNAQ / RFU, CDK5R1 / Fold change vs veh, CDK5R1 / RFU, ZRANB3 / Fold change vs veh, ZRANB3 / RFU, CUL4A / Fold change vs veh, CUL4A / RFU, CCNY / Fold change vs veh, CCNY / RFU, UFL1 / Fold change vs veh, UFL1 / RFU, COG3 / Fold change vs veh, COG3 / RFU, DIAPH2 / Fold change vs veh, DIAPH2 / RFU, SKA2 / Fold change vs veh, SKA2 / RFU, AFF3 / Fold change vs veh, AFF3 / RFU, LMF1 / Fold change vs veh, LMF1 / RFU, IPO11 / Fold change vs veh, IPO11 / RFU, DFFB / Fold change vs veh, DFFB / RFU, FOXP1 / Fold change vs veh, FOXP1 / RFU, CARD8 / Fold change vs veh, CARD8 / RFU, STRN3 / Fold change vs veh, STRN3 / RFU, ADK / Fold change vs veh, ADK / RFU, RASSF2 / Fold change vs veh, RASSF2 / RFU, WIPF1 / Fold change vs veh, WIPF1 / RFU, LARP1B / Fold change vs veh, LARP1B / RFU, RASA1 / Fold change vs veh, RASA1 / RFU, RB1 / Fold change vs veh, RB1 / RFU, PPFIA1 / Fold change vs veh, PPFIA1 / RFU, MAT2A / Fold change vs veh, MAT2A / RFU, CCT5 / Fold change vs veh, CCT5 / RFU, WDR92 / Fold change vs veh, WDR92 / RFU, CUX1 / Fold change vs veh, CUX1 / RFU, TTC7A / Fold change vs veh, TTC7A / RFU, TMEM135 / Fold change vs veh, TMEM135 / RFU, DEPTOR / Fold change vs veh, DEPTOR / RFU, CPM / Fold change vs veh, CPM / RFU, DNAJB6 / Fold change vs veh, DNAJB6 / RFU, CACNA2D3 / Fold change vs veh, CACNA2D3 / RFU, DTX4 / Fold change vs veh, DTX4 / RFU, TFCP2 / Fold change vs veh, TFCP2 / RFU, GMCL1 /// GMCL1P1 / Fold change vs veh, GMCL1 /// GMCL1P1 / RFU, AEBP2 / Fold change vs veh, AEBP2 / RFU, SNHG1 /// SNORD22 /// SNORD25 /// SNORD26 /// SNORD27 /// SNORD28 /// SNORD29 /// SNORD31 / Fold change vs veh, SNHG1 /// SNORD22 /// SNORD25 /// SNORD26 /// SNORD27 /// SNORD28 /// SNORD29 /// SNORD31 / Fold change (Aza/veh), C12orf56 (ProbeSet 11735607_a_at) / Fold change (ACY-1035/veh), C12orf56 (ProbeSet 11735607_a_at) / Fold change (Aza/veh), FGFR1OP (ProbeSet 11751329_s_at) / Fold change (ACY-1035/veh), FGFR1OP (ProbeSet 11751329_s_at) / Fold change (Aza/veh), VPS36 (ProbeSet 11739960_a_at) / Fold change (ACY-1035/veh), VPS36 (ProbeSet 11739960_a_at) / RFU SYPL1 (11715823_x_at) / Fold change /veh SYPL1 (11715823_x_at) / RFU IGFBP7 (11715501_s_at) / Fold change /veh IGFBP7 (11715501_s_at) / RFU REEP3 (11722064_at) / Fold change /veh REEP3 (11722064_at) / RFU IGLL1 (11728026_x_at) / Fold change /veh IGLL1 (11728026_x_at): dose or concentration left out as unconfirmed
Details: ProbeSet 11730252_s_at; LIST B

Nc1ccc(-c2cccs2)cc1NC(=O)c1ccc2c(c1)cc(C1CC1)n2CCN1CCOCC1 [ACY-1035]
RFU, AHCTF1: 224.50 RFU
